For 36 compounds, Activity results are on record in ChEMBL document CHEMBL3779873, “Rubrolide analogues and their derived lactams as potential anticancer agents” (Medchemcomm, 2016).

The nature of experiment [1]: Cytotoxicity against human HCT116 cells assessed as reduction in cell viability at 25 ug/mL after 72 hrs by MTT assay. The class given is functional, HCT-116. (Formazan colour is commonly taken as a measure of viable cells.)
Experiment [2] can be described thus: Cytotoxicity against human SF295 cells assessed as reduction in cell viability at 25 ug/mL after 72 hrs by MTT assay. It counts as functional, SF-295.
A short description of experiment [3]: Cytotoxicity against human OVCAR8 cells assessed as reduction in cell viability at 25 ug/mL after 72 hrs by MTT assay. It counts as functional, OVCAR-8.

`COc1ccc(Br)cc1C1=C(Br)C(=O)N(CC(C)C)C1(O)Cc1cccc(Cl)c1` (stereo not drawn): the Activity in experiment [1] amounted to 92.75%; in experiment [2] it was 78.09%; in experiment [3] it was 98.49%.

For `O=C1O/C(=C\c2ccc3c(c2)OCO3)C(Cl)=C1Cl`, the Activity in experiment [1] amounted to 53.64%; in experiment [2], 87.84%; in experiment [3], 94.9%.

As to `COc1ccc(C)cc1C1=C(Br)C(=O)N(CC(C)C)C1(O)Cc1ccccc1Cl` (stereo not drawn), the Activity in experiment [1] worked out at 78.5%; in experiment [2] it was 63.57%; in experiment [3] it was 44.39%.

Consider `COc1ccc(Br)cc1C1=C(Br)C(=O)N(CC(C)C)/C1=C\c1cccc(Cl)c1`, for which the Activity in experiment [1] came to 86.98%; in experiment [2], 72.36%; in experiment [3], 52.15%.

In the case of `COc1ccccc1C1=C(Br)C(=O)N(CC(C)C)C1(O)Cc1ccc(C(F)(F)F)cc1` (stereo not drawn), the figures for the Activity in experiment [1], in experiment [2] and in experiment [3] were 78.84%, 67.94% and 21.61%, respectively.

Regarding `COc1cccc(Cc2n[nH]c(=O)c(Br)c2-c2cc(Br)ccc2OC)c1`, the Activity in experiment [1] came to 10.78%; in experiment [2] it was 30.95%; in experiment [3] it was 10.69%.

As for `CCCN1C(=O)C(Cl)=C(Cl)C1(O)Cc1ccc(F)cc1` (stereo not drawn), the results for the Activity in experiment [1], in experiment [2] and in experiment [3] were 25.82%, 10.95% and 9.25%, respectively.

`O=C1O/C(=C\c2ccc(C(F)(F)F)cc2)C(Cl)=C1Cl`: the Activity in experiment [1] worked out at 76.92%; in experiment [2] it was 92.21%; in experiment [3], 98.2%.

`COc1ccc(Br)cc1C1=C(Br)C(=O)N(CC(C)C)/C1=C/c1ccc(Br)cc1`: the figures for the Activity in experiment [1], in experiment [2] and in experiment [3] were 97.98%, 53.77% and 90.66%, respectively.

Regarding `O=C1O/C(=C\c2ccc(Cl)cc2)C(Cl)=C1Cl`, the Activity in experiment [1] was 95.81%; in experiment [2], 48.84%; in experiment [3] it was 0%.

As for `COc1ccc(Cl)cc1C1=C(Br)C(=O)O/C1=C\c1ccc(F)cc1`, the Activity in experiment [1] is listed as 55.49%; in experiment [2] it was 84.72%; in experiment [3] it was 32.6%.

Consider `CCCN1C(=O)C(Cl)=C(Cl)/C1=C\c1ccc(F)cc1`, for which the Activity in experiment [1] was 64.83%; in experiment [2], 97.74%; in experiment [3] it was 99.07%.

Regarding `COc1ccc(Cl)cc1-c1c(Cc2ccc(F)cc2)n[nH]c(=O)c1Br`, the Activity in experiment [1] stood at 14.71%; in experiment [2], 18.95%; in experiment [3], 42.17%.

Take `COc1ccc(Br)cc1C1=C(Br)C(=O)O/C1=C\c1ccc(Br)cc1`: the Activity in experiment [1] was determined as 97.53%; in experiment [2], 75.68%; in experiment [3] it was 98.28%.

Turning to `O=C1O/C(=C\c2ccc(F)cc2)C(Cl)=C1Cl`, the Activity stood at 97.68% in experiment [1], 68.44% in experiment [2] and 98.99% in experiment [3].

Consider `COc1ccc(Br)cc1C1=C(Br)C(=O)N(CC(C)C)/C1=C\c1ccc(Br)cc1`, for which the figures for the Activity in experiment [1], in experiment [2] and in experiment [3] were 44.22%, 30.25% and 25.49%, respectively.

Take `CC(C)CN1C(=O)C(Cl)=C(Cl)/C1=C\c1ccc(Br)cc1`: the Activity in experiment [1] stood at 57.48%; in experiment [2], 58.59%; in experiment [3], 52.94%.

On to `COc1ccc(Cl)cc1C1=C(Br)C(=O)O/C1=C\c1ccc([N+](=O)[O-])cc1`, for which the Activity in experiment [1] came to 92.2%; in experiment [2] it was 82.86%; in experiment [3] it was 53.71%.

`COc1ccc(Cl)cc1-c1c(Cc2cccc([N+](=O)[O-])c2)n[nH]c(=O)c1Br`: the results for the Activity in experiment [1], in experiment [2] and in experiment [3] were 31.84%, 47.34% and 37.42%, respectively.

Regarding `CC(C)CN1C(=O)C(Cl)=C(Cl)/C1=C/c1ccc(Br)cc1`, the Activity came out at 97.93% in experiment [1], 48.29% in experiment [2] and 54.45% in experiment [3].

Consider `COc1ccc(Br)cc1-c1c(Cc2ccc(C(F)(F)F)cc2)n[nH]c(=O)c1Br`, for which the figures for the Activity in experiment [1], in experiment [2] and in experiment [3] were 98.03%, 74.92% and 46.18%, respectively.

Take `COc1cccc(CC2(O)C(c3cc(Cl)ccc3OC)=C(Br)C(=O)N2CC(C)C)c1` (stereo not drawn): the Activity in experiment [1] is 67.25%; in experiment [2], 69.2%; in experiment [3], 27%.

Take `COc1ccccc1C1=C(Br)C(=O)N(CC(C)C)/C1=C/c1ccc(C(F)(F)F)cc1`: the Activity in experiment [1] turned out to be 88.8%; in experiment [2], 84.72%; in experiment [3] it was 75.07%.

For `COc1ccc(Br)cc1C1=C(Br)C(=O)N(CC(C)C)C1(O)Cc1ccc(Br)cc1` (stereo not drawn), the Activity in experiment [1] came out at 82.39%; in experiment [2], 56.18%; in experiment [3], 32.1%.

In the case of `COc1ccccc1C1=C(Br)C(=O)O/C1=C\c1ccc(C(F)(F)F)cc1`, the Activity is on record as 84.46% in experiment [1], 71.31% in experiment [2] and 98.85% in experiment [3].

Consider `COc1cccc(/C=C2/C(c3cc(Cl)ccc3OC)=C(Br)C(=O)N2CC(C)C)c1`, for which the Activity in experiment [1] is 38.65%; in experiment [2], 25.57%; in experiment [3], 42.28%.

As to `COc1cccc(/C=C2\OC(=O)C(Br)=C2c2cc(Cl)ccc2OC)c1`, the Activity in experiment [1] is recorded as 97.09%; in experiment [2], 48.09%; in experiment [3] it was 97.92%.

Regarding `COc1ccc(C)cc1C1=C(Br)C(=O)O/C1=C\c1ccccc1Cl`, the Activity in experiment [1] was 35.84%; in experiment [2], 2.02%; in experiment [3], 26.18%.

`COc1ccc(C)cc1C1=C(Br)C(=O)N(CC(C)C)/C1=C/c1ccccc1Cl`: the Activity in experiment [1] was found to be 19.23%; in experiment [2] it was 6.91%; in experiment [3] it was 34.8%.

As for `CC(C)CN1C(=O)C(Cl)=C(Cl)C1(O)Cc1ccc(Br)cc1` (stereo not drawn), the Activity was 49.89% in experiment [1], 42.06% in experiment [2] and 13.42% in experiment [3].

Consider `COc1ccc(C)cc1C1=C(Br)C(=O)N(CC(C)C)/C1=C\c1ccccc1Cl`, for which the Activity in experiment [1] turned out to be 77.02%; in experiment [2], 61.86%; in experiment [3], 20.46%.

Take `COc1ccc(Br)cc1-c1c(Cc2ccc(F)cc2)n[nH]c(=O)c1Br`: the Activity in experiment [1] was 59.8%; in experiment [2], 48.14%; in experiment [3] it was 29.08%.

As for `COc1ccc(Cl)cc1-c1c(Cc2ccc(C(F)(F)F)cc2)n[nH]c(=O)c1Br`, the Activity in experiment [1] came out at 97.73%; in experiment [2] it was 73.87%; in experiment [3], 53.87%.

As to `COc1ccc(Br)cc1C1=C(Br)C(=O)O/C1=C\c1ccccc1Cl`, the Activity is recorded as 74.4% in experiment [1], 49.4% in experiment [2] and 57.61% in experiment [3].

Regarding `COc1ccccc1C1=C(Br)C(=O)N(CC(C)C)/C1=C\c1ccc(C(F)(F)F)cc1`, the Activity was determined as 79.09% in experiment [1], 51.01% in experiment [2] and 47.91% in experiment [3].

Consider `O=C1O/C(=C\c2cccc(Cl)c2)C(Cl)=C1Cl`, for which the Activity came to 62.17% in experiment [1], 86.08% in experiment [2] and 99.86% in experiment [3].
